Source: patent publication US10765114B2, “4-amino-6-(pyridyl and 2-substitutedphenyl)-picolinates and 6-amino-2-(pyridyl and 2-substitutedphenyl)-pyrimidine-4-carboxylates and their use as herbicides” (Dow AgroSciences LLC, priority 2013, dated 2020)
Read-outs that look alike come from different tables or passages of the source.

Legend:
[1] = tested on: Key Broadleaf Weed and Crop Species; test: Post-Emergent Test II (Table 5); assay type: in vivo; conditions: post-emergence, 336 h; for pest or weed control at 70 g/ha: application rate 70 (kg ai/ha; footnote: g ai/ha); for pest or weed control at 140 g/ha: application rate 140 (kg ai/ha; footnote: g ai/ha)
Protocol: (§1) Seeds or nutlets of the desired test plant species were planted in Sun Gro Metro-Mix® 360 planting mixture, which typically has a pH of 6.0 to 6.8 and an organic matter content of about 30 percent, in plastic pots with a surface area of 64 square centimeters. When required to ensure good germination and healthy plants, a fungicide treatment and/or other chemical or physical treatment was applied. The plants were grown for 7-21 days in a greenhouse with an approximate 15 h photoperiod which was maintained at about 23-29° C. during the day and 22-28° C. during the night. Nutrients and water were added on a regular basis and supplemental lighting was provided with overhead metal halide 1000-Watt lamps as necessary. The plants were employed for testing when they reached the first or second true leaf stage.
(§2) A weighed amount, determined by the highest rate to be tested, of each test compound was placed in a 25 mL glass vial and was dissolved in 4 mL of a 97:3 v/v mixture of acetone and DMSO to obtain concentrated stock solutions. […] The concentrated stock solutions obtained were diluted with 20 mL of an aqueous mixture containing acetone, water, isopropyl alcohol, DMSO, Atplus 411F crop oil concentrate, and Triton® X-155 surfactant in a 48.5:39:10:1.5:1.0:0.02 v/v ratio to obtain spray solutions containing the highest application rates. Additional application rates were obtained by serial dilution of 12 mL of the high rate solution into a solution containing 2 mL of 97:3 v/v mixture of acetone and DMSO and 10 mL of an aqueous mixture containing acetone, water, isopropyl alcohol, DMSO, Atplus 411F crop oil concentrate, and Triton X-155 surfactant in a 48.5:39:10:1.5:1.0:0.02 v/v ratio to obtain ½×, ¼×, ⅛× and 1/16× rates of the high rate. Compound requirements are based upon a 12 mL application volume at a rate of 187 liters per hectare (L/ha). Formulated compounds were applied to the plant material with an overhead Mandel track sprayer equipped with 8002E nozzles calibrated to deliver 187 L/ha over an application area of 0.503 square meters at a spray height of 18 inches (43 cm) above the average plant canopy height. Control plants were sprayed in the same manner with the solvent blank.
(§3) The treated plants and control plants were placed in a greenhouse as described above and watered by subirrigation to prevent wash-off of the test compounds. After 14 days, the condition of the test plants as compared with that of the untreated plants was determined visually and scored on a scale of 0 to 100 percent where 0 corresponds to no injury and 100 corresponds to complete kill and presented as indicated in Table A. Some of the compounds tested, application rates employed, plant species tested, and results are given in Table 5.

[2] = tested on: Key Grass and Sedge Weeds as well as Grass Crops; test: Post-Emergent Test II (Table 6); assay type: in vivo; conditions: for Visual Growth Reduction (%) 14 Days After Application, CYPSS: CYPSS (CYPES: yellow nutsedge, Cyperus esculentus); for Visual Growth Reduction (%) 14 Days After Application, ECHSS: ECHSS (ECHCG: barnyardgrass, Echinochloa crus-galli); for Visual Growth Reduction (%) 14 Days After Application, ORYSS: ORYSS (ORYSA: rice, Oryza sativa); for Visual Growth Reduction (%) 14 Days After Application, ORYSS / Visual Growth Reduction (%) 14 Days After Application, TRZSS / Visual Growth Reduction (%) 14 Days After Application, ZEAMX: crop; for Visual Growth Reduction (%) 14 Days After Application, SORVU: SORVU: johnsongrass (Sorghum vulgare); for Visual Growth Reduction (%) 14 Days After Application, TRZSS: TRZSS (TRZAS: wheat, spring, Triticum aestivum); for pest or weed control at 140 g/ha: post-emergence, 336 h, 14 days after application
Protocol: as §1, §2, §3

[3] = Abutilon theophrasti, ABUTH: velvetleaf (Abutilon theophrasti), read-out: Visual Growth Reduction (%) 14 Days After Application ABUTH
[4] = Amaranthus retroflexus, AMARE: redroot pigweed (Amaranthus retroflexus), read-out: Visual Growth Reduction (%) 14 Days After Application AMARE
[5] = Brassica napus, BRSSS: oilseed rape, canola (Brassica napus), read-out: Visual Growth Reduction (%) 14 Days After Application BRSSS
[6] = Chenopodium album, CHEAL: lambsquarters (Chenopodium album), read-out: Visual Growth Reduction (%) 14 Days After Application CHEAL
[7] = Euphorbia heterophylla, EPHHL: wild poinsettia (Euphorbia heterophylla), read-out: Visual Growth Reduction (%) 14 Days After Application EPHHL
[8] = Helianthus annuus, HELAN: sunflower (Helianthus annuus), read-out: Visual Growth Reduction (%) 14 Days After Application HELAN
[9] = Viola tricolor, VIOTR: wild pansy (Viola tricolor), read-out: Visual Growth Reduction (%) 14 Days After Application VIOTR
[10] = DIGSA: crabgrass (Digitaria sanguinalis), 70 g ai/ha
[11] = DIGSA: crabgrass (Digitaria sanguinalis), 140 g ai/ha
[12] = SETFA: giant foxtail (Setaria faberi), 70 g ai/ha
[13] = SETFA: giant foxtail (Setaria faberi), 140 g ai/ha
[14] = ZEAMX: maize, corn (Zea mays), 70 g ai/ha
[15] = ZEAMX: maize, corn (Zea mays), 140 g ai/ha

COC(=O)c1nc(-c2ccc(Cl)c(F)c2Cl)c(F)c(N)c1Cl [Compound 19, Methyl 4-amino-3-chloro-6-(2,4-dichloro-3-fluorophenyl)-5-fluoropicolinate] showed a pest or weed control at 70 g/ha [1, 3] of 95 to 100%, a pest or weed control at 140 g/ha [1, 3] of 95 to 100% and a pest or weed control at 70 g/ha [1, 4] of 95 to 100%. For the same compound, the pest or weed control at 140 g/ha [1, 4] was 95 to 100%, the pest or weed control at 70 g/ha [1, 5] was 95 to 100% and the pest or weed control at 140 g/ha [1, 5] was 95 to 100%. It also gave a pest or weed control at 70 g/ha [1, 6] of 85 to 94%, a pest or weed control at 140 g/ha [1, 6] of 95 to 100% and a pest or weed control at 70 g/ha [1, 7] of 85 to 94%. For the same compound, the pest or weed control at 140 g/ha [1, 7] was 95 to 100%, the pest or weed control at 70 g/ha [1, 8] was 95 to 100% and the pest or weed control at 140 g/ha [1, 8] was 95 to 100%. The pest or weed control at 70 g/ha [1, 9] was 85 to 94%, the pest or weed control at 140 g/ha [1, 9] was 95 to 100% and the “Visual Growth Reduction (%) 14 Days After Application, CYPSS” value ([2]; 70 g ai/ha) was “A (95-100)”. The “Visual Growth Reduction (%) 14 Days After Application, CYPSS” value ([2]; 140 g ai/ha) was “A (95-100)”, the “Visual Growth Reduction (%) 14 Days After Application, DIGSA” value [2, 10] was “E (45-59)” and the “Visual Growth Reduction (%) 14 Days After Application, DIGSA” value [2, 11] was “C (75-84)”. The “Visual Growth Reduction (%) 14 Days After Application, ECHSS” value ([2]; 70 g ai/ha) was “C (75-84)”, the “Visual Growth Reduction (%) 14 Days After Application, ECHSS” value ([2]; 140 g ai/ha) was “A (95-100)” and the “Visual Growth Reduction (%) 14 Days After Application, ORYSS” value ([2]; 70 g ai/ha) was “F (30-44)”. For the same compound, the “Visual Growth Reduction (%) 14 Days After Application, ORYSS” value ([2]; 140 g ai/ha) was “E (45-59)”, the “Visual Growth Reduction (%) 14 Days After Application, SETFA” value [2, 12] was “C (75-84)” and the “Visual Growth Reduction (%) 14 Days After Application, SETFA” value [2, 13] was “B (85-94)”. For the same compound, the “Visual Growth Reduction (%) 14 Days After Application, SORVU” value ([2]; 70 g ai/ha) was “B (85-94)”, the “Visual Growth Reduction (%) 14 Days After Application, SORVU” value ([2]; 140 g ai/ha) was “B (85-94)” and the “Visual Growth Reduction (%) 14 Days After Application, TRZSS” value ([2]; 70 g ai/ha) was “C (75-84)”. The “Visual Growth Reduction (%) 14 Days After Application, TRZSS” value ([2]; 140 g ai/ha) was “C (75-84)”, the “Visual Growth Reduction (%) 14 Days After Application, ZEAMX” value [2, 14] was “B (85-94)” and the “Visual Growth Reduction (%) 14 Days After Application, ZEAMX” value [2, 15] was “A (95-100)”.

Nc1c(F)c(-c2ccc(C(F)(F)F)nc2F)nc(C(=O)O)c1Cl [Compound 26] gave a pest or weed control at 140 g/ha [1, 3] of 0 to 29%, a pest or weed control at 140 g/ha [1, 4] of 0 to 29% and a pest or weed control at 140 g/ha [1, 5] of 0 to 29%. The pest or weed control at 140 g/ha [1, 6] was 0 to 29%, the pest or weed control at 140 g/ha [1, 7] was 0 to 29% and the pest or weed control at 140 g/ha [1, 8] was 45 to 59%. For the same compound, the pest or weed control at 140 g/ha [1, 9] was 0 to 29%, the pest or weed control at 140 g/ha ([2]; CYPSS, 140 g ai/ha, read-out: Visual Growth Reduction (%) 14 Days After Application CYPSS) was 0 to 29% and the pest or weed control at 140 g/ha ([2]; DIGSA: crabgrass (Digitaria sanguinalis), 140 g ai/ha, read-out: Visual Growth Reduction (%) 14 Days After Application DIGSA) was 0 to 29%. It also gave a pest or weed control at 140 g/ha ([2]; ECHSS, 140 g ai/ha, read-out: Visual Growth Reduction (%) 14 Days After Application ECHSS) of 0 to 29%, a pest or weed control at 140 g/ha ([2]; ORYSS (crop), 140 g ai/ha, read-out: Visual Growth Reduction (%) 14 Days After Application ORYSS) of 0 to 29% and a pest or weed control at 140 g/ha ([2]; SETFA: giant foxtail (Setaria faberi), 140 g ai/ha, read-out: Visual Growth Reduction (%) 14 Days After Application SETFA) of 0 to 29%. For the same compound, the pest or weed control at 140 g/ha ([2]; SORVU: grain sorghum (Sorghum vulgare), 140 g ai/ha, read-out: Visual Growth Reduction (%) 14 Days After Application SORVU) was 0 to 29%, the pest or weed control at 140 g/ha ([2]; TRZSS (crop), 140 g ai/ha, read-out: Visual Growth Reduction (%) 14 Days After Application TRZSS) was 0 to 29% and the pest or weed control at 140 g/ha ([2]; ZEAMX: maize, corn (Zea mays), 140 g ai/ha, read-out: Visual Growth Reduction (%) 14 Days After Application ZEAMX) was 0 to 29%.

COC(=O)c1nc(-c2ccc(Cl)c(F)c2Cl)nc(N)c1OC [Compound 42, Methyl 6-amino-2-(2,4-dichloro-3-fluorophenyl)-5-methoxypyrimidine-4-carboxylate] was tested, and the pest or weed control at 70 g/ha [1, 3] was 95 to 100%, the pest or weed control at 140 g/ha [1, 3] was 95 to 100% and the pest or weed control at 70 g/ha [1, 4] was 95 to 100%. The pest or weed control at 140 g/ha [1, 4] was 95 to 100%, the pest or weed control at 70 g/ha [1, 5] was 95 to 100% and the pest or weed control at 140 g/ha [1, 5] was 95 to 100%. It also gave a pest or weed control at 70 g/ha [1, 6] of 95 to 100%, a pest or weed control at 140 g/ha [1, 6] of 95 to 100% and a pest or weed control at 70 g/ha [1, 7] of 30 to 44%. It also gave a pest or weed control at 140 g/ha [1, 7] of 60 to 74%, a pest or weed control at 70 g/ha [1, 8] of 85 to 94% and a pest or weed control at 140 g/ha [1, 8] of 85 to 94%. For the same compound, the pest or weed control at 70 g/ha [1, 9] was 60 to 74%, the pest or weed control at 140 g/ha [1, 9] was 60 to 74% and the “Visual Growth Reduction (%) 14 Days After Application, CYPSS” value ([2]; 70 g ai/ha) was “A (95-100)”. The “Visual Growth Reduction (%) 14 Days After Application, CYPSS” value ([2]; 140 g ai/ha) was “A (95-100)”, the “Visual Growth Reduction (%) 14 Days After Application, DIGSA” value [2, 10] was “G (0-29)” and the “Visual Growth Reduction (%) 14 Days After Application, DIGSA” value [2, 11] was “G (0-29)”. For the same compound, the “Visual Growth Reduction (%) 14 Days After Application, ECHSS” value ([2]; 70 g ai/ha) was “G (0-29)”, the “Visual Growth Reduction (%) 14 Days After Application, ECHSS” value ([2]; 140 g ai/ha) was “G (0-29)” and the “Visual Growth Reduction (%) 14 Days After Application, ORYSS” value ([2]; 70 g ai/ha) was “G (0-29)”. For the same compound, the “Visual Growth Reduction (%) 14 Days After Application, ORYSS” value ([2]; 140 g ai/ha) was “G (0-29)”, the “Visual Growth Reduction (%) 14 Days After Application, SETFA” value [2, 12] was “G (0-29)” and the “Visual Growth Reduction (%) 14 Days After Application, SETFA” value [2, 13] was “G (0-29)”. For the same compound, the “Visual Growth Reduction (%) 14 Days After Application, SORVU” value ([2]; 70 g ai/ha) was “G (0-29)”, the “Visual Growth Reduction (%) 14 Days After Application, SORVU” value ([2]; 140 g ai/ha) was “F (30-44)” and the “Visual Growth Reduction (%) 14 Days After Application, TRZSS” value ([2]; 70 g ai/ha) was “F (30-44)”. For the same compound, the “Visual Growth Reduction (%) 14 Days After Application, TRZSS” value ([2]; 140 g ai/ha) was “E (45-59)”, the “Visual Growth Reduction (%) 14 Days After Application, ZEAMX” value [2, 14] was “G (0-29)” and the “Visual Growth Reduction (%) 14 Days After Application, ZEAMX” value [2, 15] was “G (0-29)”.
